In the NIST ThermoML archive (doi:10.1021/acs.jced.8b00400):
± gives the expanded uncertainty stated by the source.

Assay: osmotic coefficient (dimensionless); mn = molality of the nth substance listed, in mol/kg
Conditions: 298.15 K, 100 kPa, Liquid, isopiestic method

| osmotic coefficient (m1 = 1.004) | osmotic coefficient (m1 = 2.01) | osmotic coefficient (m1 = 0.9956) | osmotic coefficient (m1 = 2.002) | SMILES |
| --- | --- | --- | --- | --- |
| 0.9589 ± 0.0089 | 1.032 ± 0.0089 |  |  | [Na+].[OH-] [sodium hydroxide] + O |
|  |  | 0.901 ± 0.011 | 0.916 ± 0.011 | [Cl-].[K+] [potassium chloride] + O |
